Experimental data: ChEMBL document CHEMBL1140644, “New modifications to the area of pyrazole-naphthyl urea based p38 MAP kinase inhibitors that bind to the adenine/ATP site” (Bioorg Med Chem Lett, 2007)
Active and inactive are the calls of the source. The calls are words filed in the database; no cut-off is given here.

Key:
THP-1 = assay: Inhibition of LPS-induced TNFalpha production in THP1 cells; assay type: functional, cell-based; settings: Homo sapiens
Blood = assay: Inhibition of LPS-induced TNFalpha production in human whole blood; assay type: functional, tissue-based
Mus musculus [1] = assay: Inhibition of LPS-induced TNFalpha production in mouse at 10 mg/kg after 1 hr; assay type: functional
[2] = Lipophilicity, log D at pH 7.4; assay type: physicochemical; settings: buffer
Mus musculus [3] = assay: Inhibition of LPS-induced TNFalpha production in mouse at 3 mg/kg after 1 hr; assay type: functional
Homo sapiens = species: Homo sapiens; assay: Protein binding in human plasma by equilibrium dialysis; settings: read-out: PPB
[4] = target: Mitogen-activated protein kinase 9 (Homo sapiens, UniProt P45984); assay: Inhibition of Jnk2
[5] = target: RAF proto-oncogene serine/threonine-protein kinase (Homo sapiens, UniProt P04049); assay: Inhibition of cRaf
[6] = target: Proto-oncogene tyrosine-protein kinase Src (Homo sapiens, UniProt P12931); assay: Inhibition of Src
[7] = target: Tyrosine-protein kinase Lyn (Homo sapiens, UniProt P07948); assay: Inhibition of Lyn
[8] = target: Tyrosine-protein kinase ABL1 (Homo sapiens, UniProt P00519); assay: Inhibition of Abl
Sequence of Tyrosine-protein kinase ABL1 (P00519 whole entry): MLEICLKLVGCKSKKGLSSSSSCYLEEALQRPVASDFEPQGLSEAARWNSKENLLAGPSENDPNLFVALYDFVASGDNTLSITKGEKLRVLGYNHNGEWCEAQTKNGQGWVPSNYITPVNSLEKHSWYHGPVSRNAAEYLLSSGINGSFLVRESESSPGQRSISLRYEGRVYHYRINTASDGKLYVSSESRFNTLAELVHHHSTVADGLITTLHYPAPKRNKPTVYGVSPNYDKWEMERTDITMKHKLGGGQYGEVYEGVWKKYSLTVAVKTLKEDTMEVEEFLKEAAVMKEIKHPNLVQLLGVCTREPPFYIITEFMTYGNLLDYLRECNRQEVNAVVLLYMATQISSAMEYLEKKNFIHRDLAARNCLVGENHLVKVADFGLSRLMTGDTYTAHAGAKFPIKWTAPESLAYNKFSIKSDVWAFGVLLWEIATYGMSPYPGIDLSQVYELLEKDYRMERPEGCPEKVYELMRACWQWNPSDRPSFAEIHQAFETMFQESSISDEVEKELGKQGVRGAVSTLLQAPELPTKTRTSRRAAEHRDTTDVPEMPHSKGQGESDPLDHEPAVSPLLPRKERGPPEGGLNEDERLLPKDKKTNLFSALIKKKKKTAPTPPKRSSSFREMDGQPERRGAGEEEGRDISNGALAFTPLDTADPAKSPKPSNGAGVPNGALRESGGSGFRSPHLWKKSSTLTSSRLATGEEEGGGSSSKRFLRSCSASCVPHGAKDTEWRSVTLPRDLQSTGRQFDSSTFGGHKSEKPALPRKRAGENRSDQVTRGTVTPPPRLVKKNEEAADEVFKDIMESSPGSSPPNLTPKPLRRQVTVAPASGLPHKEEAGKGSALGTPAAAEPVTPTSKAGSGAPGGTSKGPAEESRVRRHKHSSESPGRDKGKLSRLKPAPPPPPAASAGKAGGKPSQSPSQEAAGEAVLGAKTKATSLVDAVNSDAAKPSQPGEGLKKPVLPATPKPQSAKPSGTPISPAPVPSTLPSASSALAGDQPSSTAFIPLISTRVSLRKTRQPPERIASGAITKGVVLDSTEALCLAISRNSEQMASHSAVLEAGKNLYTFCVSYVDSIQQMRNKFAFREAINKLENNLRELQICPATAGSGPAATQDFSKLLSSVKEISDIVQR

Sequence of Tyrosine-protein kinase Lyn (P07948 whole entry): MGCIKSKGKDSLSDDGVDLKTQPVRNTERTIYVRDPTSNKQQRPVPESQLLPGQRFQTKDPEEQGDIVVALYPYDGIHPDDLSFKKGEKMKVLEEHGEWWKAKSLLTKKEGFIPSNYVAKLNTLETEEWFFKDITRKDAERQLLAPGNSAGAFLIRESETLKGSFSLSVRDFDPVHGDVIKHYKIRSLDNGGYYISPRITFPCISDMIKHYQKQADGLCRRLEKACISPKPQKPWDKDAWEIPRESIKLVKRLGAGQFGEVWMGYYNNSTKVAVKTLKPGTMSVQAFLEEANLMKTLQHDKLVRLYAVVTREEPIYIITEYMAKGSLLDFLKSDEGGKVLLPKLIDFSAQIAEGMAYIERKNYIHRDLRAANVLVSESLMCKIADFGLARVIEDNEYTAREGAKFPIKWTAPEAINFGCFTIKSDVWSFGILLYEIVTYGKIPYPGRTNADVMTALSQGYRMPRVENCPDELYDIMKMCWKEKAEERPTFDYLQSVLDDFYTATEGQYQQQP
Sequence of Proto-oncogene tyrosine-protein kinase Src (P12931 2-536 limits assumed): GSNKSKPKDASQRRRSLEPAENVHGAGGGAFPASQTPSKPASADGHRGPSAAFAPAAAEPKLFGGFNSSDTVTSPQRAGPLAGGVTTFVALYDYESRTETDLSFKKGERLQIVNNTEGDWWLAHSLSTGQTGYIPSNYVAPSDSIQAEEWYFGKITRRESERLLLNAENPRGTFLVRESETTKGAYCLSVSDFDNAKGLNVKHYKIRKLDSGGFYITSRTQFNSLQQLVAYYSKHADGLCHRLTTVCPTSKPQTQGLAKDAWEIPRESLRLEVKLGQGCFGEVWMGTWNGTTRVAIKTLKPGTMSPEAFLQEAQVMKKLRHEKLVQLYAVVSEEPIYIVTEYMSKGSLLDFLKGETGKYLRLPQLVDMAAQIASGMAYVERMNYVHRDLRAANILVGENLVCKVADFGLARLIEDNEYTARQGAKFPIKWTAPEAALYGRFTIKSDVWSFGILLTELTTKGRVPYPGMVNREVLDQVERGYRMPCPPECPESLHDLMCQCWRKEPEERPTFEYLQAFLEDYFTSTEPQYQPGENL
Sequence of Mitogen-activated protein kinase 9 (P45984 whole entry): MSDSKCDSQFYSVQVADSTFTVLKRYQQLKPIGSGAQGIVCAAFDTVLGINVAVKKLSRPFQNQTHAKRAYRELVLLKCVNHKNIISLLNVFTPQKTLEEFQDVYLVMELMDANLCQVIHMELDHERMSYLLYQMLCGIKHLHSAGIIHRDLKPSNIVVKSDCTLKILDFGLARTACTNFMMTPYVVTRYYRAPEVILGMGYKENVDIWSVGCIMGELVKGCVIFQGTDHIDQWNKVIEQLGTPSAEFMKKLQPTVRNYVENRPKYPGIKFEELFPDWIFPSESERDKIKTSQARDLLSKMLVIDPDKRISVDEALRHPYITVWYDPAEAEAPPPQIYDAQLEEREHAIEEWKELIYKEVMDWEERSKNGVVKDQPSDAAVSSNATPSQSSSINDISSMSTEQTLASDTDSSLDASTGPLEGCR
Sequence of RAF proto-oncogene serine/threonine-protein kinase (P04049 whole entry): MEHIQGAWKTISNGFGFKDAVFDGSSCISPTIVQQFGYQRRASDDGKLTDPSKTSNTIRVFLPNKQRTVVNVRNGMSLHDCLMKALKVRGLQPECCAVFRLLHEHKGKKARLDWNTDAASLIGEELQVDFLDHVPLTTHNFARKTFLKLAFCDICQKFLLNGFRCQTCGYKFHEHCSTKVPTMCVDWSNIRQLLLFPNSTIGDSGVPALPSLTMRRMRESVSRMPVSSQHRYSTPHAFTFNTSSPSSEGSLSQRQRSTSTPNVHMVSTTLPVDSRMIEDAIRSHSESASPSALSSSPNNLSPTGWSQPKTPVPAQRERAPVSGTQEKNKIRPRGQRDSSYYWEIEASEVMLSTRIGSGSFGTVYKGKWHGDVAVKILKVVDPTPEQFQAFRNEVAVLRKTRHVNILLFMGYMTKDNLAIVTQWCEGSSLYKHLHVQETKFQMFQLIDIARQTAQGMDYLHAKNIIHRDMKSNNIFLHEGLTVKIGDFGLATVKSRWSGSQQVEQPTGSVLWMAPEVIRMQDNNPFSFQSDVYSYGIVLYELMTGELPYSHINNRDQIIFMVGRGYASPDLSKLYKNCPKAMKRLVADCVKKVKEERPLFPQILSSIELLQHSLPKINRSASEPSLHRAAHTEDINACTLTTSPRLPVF

Compound	IC50 (THP-1)	IC50 (Blood)	further results
Cc1ccc(-n2nc(C(C)(C)C)cc2NC(=O)Nc2ccc(-c3ccc(CN(C)C)cc3)c3ccccc23)cc1	104 nM	9200 nM	–
Cn1nc(C(C)(C)C)cc1NC(=O)Nc1ccc(-c2ccc(CN3CCOCC3)nc2)c2ccccc12	32 nM	950 nM	Activity (Mus musculus [1]): inactive
Cc1ccc(-n2nc(C(C)(C)C)cc2NC(=O)Nc2ccc(-c3ccc(CN4CCOCC4)cn3)c3ccccc23)cc1	26 nM	590 nM	logD [2]: 5.2
Cc1ccc(-n2nc(C(C)(C)C)cc2NC(=O)Nc2ccc(-c3ccc(N4CCOCC4)cc3)c3ccccc23)cc1	470 nM	> 15000 nM	–
Cc1ccc(-n2nc(C(C)(C)C)cc2NC(=O)Nc2ccc(-c3ccccc3)c3ccccc23)cc1	1430 nM	> 15000 nM	–
Cc1ncc(-n2nc(C(C)(C)C)cc2NC(=O)Nc2ccc(-c3ccc(CN4CCOCC4)nc3)c3ccccc23)cn1	14 nM	160 nM	inhibition in vivo at 10 mg/kg (Mus musculus [1]): 95%; inhibition in vivo at 3 mg/kg (Mus musculus [3]): 85%; fraction unbound (Homo sapiens): < 0.03
Cn1cc(-n2nc(C(C)(C)C)cc2NC(=O)Nc2ccc(-c3ccc(CN4CCOCC4)nc3)c3ccccc23)cn1	11 nM	90 nM	inhibition in vivo at 3 mg/kg (Mus musculus [3]): 73%
Cc1ccc(-n2nc(C(C)(C)C)cc2NC(=O)Nc2ccc(-c3ccc(CN4CCOCC4)nc3)c3ccccc23)cn1	11 nM	200 nM	inhibition in vivo at 10 mg/kg (Mus musculus [1]): 86%; inhibition in vivo at 3 mg/kg (Mus musculus [3]): 50%
Cc1ccc(-n2nc(C(C)(C)C)cc2NC(=O)Nc2ccc(-c3ccc(CN4CCOCC4)o3)c3ccccc23)cc1	70 nM	6400 nM	–
Cc1ccc(-n2nc(C(C)(C)C)cc2NC(=O)Nc2ccc(-c3cccc(CN4CCOCC4)c3)c3ccccc23)cc1	56 nM	3900 nM	–
Cc1ccc(-n2nc(C(C)(C)C)cc2NC(=O)Nc2ccc(-c3cccc(N4CCOCC4)c3)c3ccccc23)cc1	1350 nM	> 15000 nM	–
Cc1ccc(-n2nc(C(C)(C)C)cc2NC(=O)Nc2ccc(-c3ccc(CN4CCN(C)CC4)cc3)c3ccccc23)cc1	46 nM	3600 nM	–
Cc1ccc(-n2nc(C(C)(C)C)cc2NC(=O)Nc2ccc(-c3ccc(CN4CCOCC4)nc3)c3ccccc23)cc1	9 nM	230 nM	logD [2]: 5.2; inhibition in vivo at 10 mg/kg (Mus musculus [1]): 74%; Activity (Mus musculus [3]): inactive; IC50 [4]: 2 nM; IC50 [5]: 400 nM; IC50 [6]: 1000 nM; IC50 [7]: 1000 nM; IC50 [8]: 1000 nM
Cc1ccc(-n2nc(C(C)(C)C)cc2NC(=O)Nc2ccc(-c3ccc(CN4CCOCC4)cc3)c3ccccc23)cc1	36 nM	1100 nM	–
Cc1ccc(-n2nc(C(C)(C)C)cc2NC(=O)Nc2cccc3ccccc23)cc1	320 nM	> 15000 nM	–
Cc1ccc(-n2nc(C(C)(C)C)cc2NC(=O)Nc2ccc(-c3ccco3)c3ccccc23)cc1	390 nM	–	–
Cc1ccc(-n2nc(C(C)(C)C)cc2NC(=O)Nc2ccc(-c3ccc(CCN4CCOCC4)cc3)c3ccccc23)cc1	56 nM	1700 nM	–
Cc1ccc(-n2nc(C(C)(C)C)cc2NC(=O)Nc2ccc(OCCN3CCOCC3)c3ccccc23)cc1 [DORAMAPIMOD]	–	–	logD [2]: 4.3; inhibition in vivo at 10 mg/kg (Mus musculus [1]): 63%
